From article PMC3423592 (ACS chemical biology, 2012)

Columns and labels:
[1] = system: 4T1 cells; assay: 4T1 cell growth in 3D culture; assay type: cell-based; settings: 3 μM GNF-2 added to 10 μM compound 4
[2] = target: c-Src (Gallus gallus, UniProt P00523); assay: continuous fluorimetric biochemical inhibition assay, c-Src; design: species or system chicken; settings: read-out: Ki, c-Src; ATP = 100 μM, substrate peptide = 45 μM
[3] = system: MDA-MB-453; assay: cell growth inhibition assay; assay type: cell-based; settings: read-out: GI50, MDA-MB-453; 72 h, WST-1
[4] = system: NIH-3T3; assay: cell growth inhibition assay; assay type: cell-based; settings: read-out: GI50, NIH-3T3; 72 h, WST-1; non-cancer cell line
[5] = system: diverse panel of 200 kinases; assay: KINOMEscan ATP-site competition binding, diverse kinase panel profiling; settings: 10 μM
[6] = target: ErbB2 (Homo sapiens, UniProt P04626); assay: KINOMEscan profiling, ErbB2; settings: 10 μM
Sequence of ErbB2 (P04626 23-1255): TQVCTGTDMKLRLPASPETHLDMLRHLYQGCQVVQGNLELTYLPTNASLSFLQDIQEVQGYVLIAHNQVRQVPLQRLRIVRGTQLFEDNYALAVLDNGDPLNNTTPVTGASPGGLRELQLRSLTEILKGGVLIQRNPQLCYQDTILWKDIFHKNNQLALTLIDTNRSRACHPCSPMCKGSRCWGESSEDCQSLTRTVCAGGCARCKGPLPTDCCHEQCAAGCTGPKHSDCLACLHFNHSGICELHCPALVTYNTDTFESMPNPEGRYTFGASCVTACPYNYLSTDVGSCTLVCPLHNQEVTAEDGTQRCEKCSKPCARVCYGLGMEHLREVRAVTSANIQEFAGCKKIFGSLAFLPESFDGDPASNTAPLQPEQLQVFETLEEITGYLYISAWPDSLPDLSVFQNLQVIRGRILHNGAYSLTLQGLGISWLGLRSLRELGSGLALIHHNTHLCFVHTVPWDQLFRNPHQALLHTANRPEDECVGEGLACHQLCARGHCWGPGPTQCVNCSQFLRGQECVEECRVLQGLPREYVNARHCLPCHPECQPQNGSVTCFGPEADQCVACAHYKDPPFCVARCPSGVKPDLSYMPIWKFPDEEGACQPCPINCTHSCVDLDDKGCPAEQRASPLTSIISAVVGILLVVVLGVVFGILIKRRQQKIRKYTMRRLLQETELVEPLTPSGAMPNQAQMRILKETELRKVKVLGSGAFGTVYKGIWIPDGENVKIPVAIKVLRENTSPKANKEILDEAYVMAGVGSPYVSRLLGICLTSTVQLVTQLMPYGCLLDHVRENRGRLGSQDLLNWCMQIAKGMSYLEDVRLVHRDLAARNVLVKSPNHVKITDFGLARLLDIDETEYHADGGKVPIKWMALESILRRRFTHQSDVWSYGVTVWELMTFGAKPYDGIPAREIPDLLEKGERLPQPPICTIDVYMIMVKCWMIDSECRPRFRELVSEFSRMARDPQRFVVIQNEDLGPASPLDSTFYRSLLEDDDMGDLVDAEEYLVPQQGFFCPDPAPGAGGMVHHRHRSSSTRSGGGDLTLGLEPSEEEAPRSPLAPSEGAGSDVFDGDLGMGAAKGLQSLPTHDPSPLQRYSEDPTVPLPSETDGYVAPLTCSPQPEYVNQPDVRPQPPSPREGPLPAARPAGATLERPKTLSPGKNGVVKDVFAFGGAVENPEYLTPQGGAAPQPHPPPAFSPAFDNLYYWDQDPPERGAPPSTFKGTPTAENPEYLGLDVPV

[7] = system: SK-BR-3; assay: cell growth inhibition assay; assay type: cell-based; settings: read-out: GI50, SK-BR-3; 72 h, WST-1
[8] = target: ErbB3 (Homo sapiens, UniProt P21860); assay: KINOMEscan profiling, ErbB3; settings: 10 μM
Sequence of ErbB3 (P21860 20-1342): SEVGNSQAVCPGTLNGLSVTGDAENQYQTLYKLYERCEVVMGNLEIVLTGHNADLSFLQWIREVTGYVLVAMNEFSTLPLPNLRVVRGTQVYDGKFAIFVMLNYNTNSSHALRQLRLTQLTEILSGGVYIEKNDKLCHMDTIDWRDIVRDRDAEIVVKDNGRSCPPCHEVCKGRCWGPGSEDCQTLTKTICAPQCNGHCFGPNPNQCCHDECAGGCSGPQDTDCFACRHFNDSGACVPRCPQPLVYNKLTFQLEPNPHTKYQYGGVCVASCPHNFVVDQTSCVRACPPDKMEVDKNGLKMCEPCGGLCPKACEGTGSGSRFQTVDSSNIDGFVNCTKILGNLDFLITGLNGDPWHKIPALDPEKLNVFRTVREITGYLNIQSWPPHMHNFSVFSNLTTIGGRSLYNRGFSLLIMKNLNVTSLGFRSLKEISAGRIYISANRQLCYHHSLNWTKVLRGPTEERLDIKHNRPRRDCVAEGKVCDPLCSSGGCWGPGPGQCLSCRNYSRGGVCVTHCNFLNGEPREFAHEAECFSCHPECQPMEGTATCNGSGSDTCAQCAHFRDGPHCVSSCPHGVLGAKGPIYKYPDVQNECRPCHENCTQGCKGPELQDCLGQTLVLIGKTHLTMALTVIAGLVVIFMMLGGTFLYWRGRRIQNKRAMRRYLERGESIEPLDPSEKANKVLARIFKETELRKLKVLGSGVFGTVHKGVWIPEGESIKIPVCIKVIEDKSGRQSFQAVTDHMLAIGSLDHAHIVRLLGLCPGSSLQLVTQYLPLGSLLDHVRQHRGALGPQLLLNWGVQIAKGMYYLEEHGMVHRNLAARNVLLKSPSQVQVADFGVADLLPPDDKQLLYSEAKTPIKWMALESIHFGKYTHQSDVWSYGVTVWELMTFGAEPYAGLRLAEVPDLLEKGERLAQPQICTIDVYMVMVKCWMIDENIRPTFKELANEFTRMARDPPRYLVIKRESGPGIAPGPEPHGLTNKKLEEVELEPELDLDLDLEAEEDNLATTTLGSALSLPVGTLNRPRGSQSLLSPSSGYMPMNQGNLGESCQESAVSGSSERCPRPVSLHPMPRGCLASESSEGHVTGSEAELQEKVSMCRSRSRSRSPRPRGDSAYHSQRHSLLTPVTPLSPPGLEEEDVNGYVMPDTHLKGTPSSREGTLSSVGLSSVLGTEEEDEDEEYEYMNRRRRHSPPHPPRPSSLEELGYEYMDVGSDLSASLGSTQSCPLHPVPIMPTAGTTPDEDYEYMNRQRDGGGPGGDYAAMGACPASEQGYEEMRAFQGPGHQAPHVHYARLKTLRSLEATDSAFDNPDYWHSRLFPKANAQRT

[9] = system: HT-29; assay: cell growth inhibition assay; assay type: cell-based; settings: read-out: GI50, HT-29; 72 h, WST-1
[10] = system: MCF7; assay: cell growth inhibition assay; assay type: cell-based; settings: read-out: GI50, MCF7; 72 h, WST-1
[11] = system: diverse panel of 200 kinases; settings: in this panel; cited from earlier work

In the case of `NC(=O)c1cccc(-c2cc(Nc3ccc(OC(F)(F)F)cc3)ncn2)c1` [GNF-2], the “4T1 cell proliferation in 3D culture, effect of co-dosing” value [1] is reported as “mitigates effects of compound 4”.

For `CC(C)(C)n1nc(-c2ccc(Cl)cc2)c2c(N)ncnc21` [PP2], the Ki [2] was 0.033 µM, the GI50 [3] was 14 µM and the GI50 [4] was 17 µM. For the same compound, the “number of kinases with >95% displacement from an immobilized ligand” value [5] was 56, the “number of kinases with >99% displacement from an immobilized ligand” value [5] was 24 and the “inhibition of ErbB2 in profiling” value [6] was “significantly inhibits”. The GI50 [7] was greater than 100 µM, the “inhibition of ErbB3 in profiling” value [8] was “significantly inhibits” and the GI50 [9] was 48 µM. It also gave a GI50 [10] greater than 100 µM.

For `Cc1nc(Nc2ncc(C(=O)Nc3c(C)cccc3Cl)s2)cc(N2CCN(CCO)CC2)n1` [dasatinib], the S35 selectivity score [11] is listed as 0.27.
